From ChEMBL document CHEMBL1121775, “Synthesis and antimalarial effects of N2-aryl-N4-[(dialkylamino)alkyl]- and N4-aryl-N2-[(dialkylamino)alkyl]-2,4-quinazolinediamines” (J Med Chem, 1981)
Where “and” joins values, the source holds several entries; their conditions need not be identical. Equal values may be shown once.

Columns and labels:
Assay type in all cases: functional
Plasmodium berghei [1] = experiment: Antimalarial effect against trophozoite-induced Plasmodium berghei in mice (Mus musculus) at 320 mg/kg subcutaneous dose
Plasmodium berghei [2] = experiment: Antimalarial effect against trophozoite-induced Plasmodium berghei in mice (Mus musculus) after 20 mg/kg subcutaneous dose
Plasmodium berghei [3] = experiment: Antimalarial effect against trophozoite-induced Plasmodium berghei in mice (Mus musculus) at 640 mg/kg subcutaneous dose
Plasmodium berghei [4] = experiment: Antimalarial effect against trophozoite-induced Plasmodium berghei in mice (Mus musculus) at 80 mg/kg subcutaneous dose
Plasmodium berghei [5] = experiment: Antimalarial effect against trophozoite-induced Plasmodium berghei in mice (Mus musculus) at 160 mg/kg subcutaneous dose
Plasmodium berghei [6] = experiment: Antimalarial effect against trophozoite-induced Plasmodium berghei in mice (Mus musculus) after 40 mg/kg subcutaneous dose
Plasmodium berghei [7] = experiment: Antimalarial activity against trophozoite-induced Plasmodium berghei in mice (Mus musculus)

In the case of `Clc1ccc(Nc2nc(NCCCN3CCCCC3)nc3ccccc23)cc1Cl`, the MST (Plasmodium berghei [1]) is reported as 1.6 days, the MST (Plasmodium berghei [2]) is reported as -0.2 days and the MST (Plasmodium berghei [3]; 640 mg/kg) is reported as 3 days and 4.1 days. The MST (Plasmodium berghei [4]) was -0.4 days.

In the case of `CCN(CC)CCCC(C)Nc1nc(Nc2cc(Cl)cc(Cl)c2)c2ccccc2n1` (centres undefined), the MST (Plasmodium berghei [1]) is reported as 3.1 days, the MST (Plasmodium berghei [2]) is reported as 0.1 days and the MST (Plasmodium berghei [3]; 640 mg/kg) is reported as 4.9 days and 4.4 days. For the same compound, the MST (Plasmodium berghei [4]) was -0.1 days and the MST (Plasmodium berghei [5]; 160 mg/kg) was 1.1 days and 1.2 days.

`CN(C)c1ccc(Nc2nc(NC3CCC(N(C)C)CC3)nc3ccccc23)cc1` (centres undefined) was tested, and the MST (Plasmodium berghei [3]) was 1.1 days, the MST (Plasmodium berghei [6]) was -0.2 days and the MST (Plasmodium berghei [5]) was 0.6 days.

In the case of `CCN(CC)CCCNc1nc(Nc2ccc(C(F)(F)F)cc2)c2ccccc2n1`, the MST (Plasmodium berghei [1]) is reported as 9.2 days, the MST (Plasmodium berghei [2]) is reported as 0 days and the MST (Plasmodium berghei [3]; 640 mg/kg) is reported as 10.1 days and 7.5 days. The MST (Plasmodium berghei [4]) was 0.8 days and the MST (Plasmodium berghei [5]; 160 mg/kg) was 0.6 days and 0.3 days.

With `CN1CCCC1CCNc1nc(Nc2ccc(C(F)(F)F)cc2)c2ccccc2n1` (centres undefined) the MST (Plasmodium berghei [1]; 320 mg/kg) was 4.1 days and 4.3 days, the MST (Plasmodium berghei [2]) was 0.3 days and the MST (Plasmodium berghei [3]) was 7.7 days. For the same compound, the MST (Plasmodium berghei [4]) was 0.5 days, the MST (Plasmodium berghei [6]) was 0.3 days and the MST (Plasmodium berghei [5]; 160 mg/kg) was 1.5 days and 1.7 days.

`Clc1cc(Cl)cc(Nc2nc(NCCCN3CCCCC3)nc3ccccc23)c1` gave an MST (Plasmodium berghei [3]) of 1.6 days, an MST (Plasmodium berghei [6]) of 0.2 days and an MST (Plasmodium berghei [5]) of 0.2 days.

In the case of `CCN(CC)CCNc1nc(Nc2cc(Cl)c(Cl)cc2Cl)nc2ccccc12`, the MST (Plasmodium berghei [3]) is reported as 1.2 days, the MST (Plasmodium berghei [6]) is reported as 0.4 days and the MST (Plasmodium berghei [5]) is reported as 0.4 days.

`CN(C)C1CCC(Nc2nc(Nc3cccc(Br)c3)c3ccccc3n2)CC1` (centres undefined) showed an MST (Plasmodium berghei [3]) of 0.7 days, an MST (Plasmodium berghei [6]) of -0.1 days and an MST (Plasmodium berghei [5]) of 0.7 days.

`OC1CCCN(CCCNc2nc(Nc3cccc4nsnc34)nc3ccccc23)C1` (centres undefined) showed an MST (Plasmodium berghei [3]) of 0 days, an MST (Plasmodium berghei [6]) of 0 days and an MST (Plasmodium berghei [5]) of 0 days.

In the case of `Clc1cc(Cl)cc(Nc2nc(NCCCN3CCCC3)nc3ccccc23)c1`, the MST (Plasmodium berghei [3]) is reported as 1.2 days, the MST (Plasmodium berghei [6]) is reported as 0.4 days and the MST (Plasmodium berghei [5]) is reported as 0.8 days.

With `CCN(CC)CCCC(C)Nc1nc(Nc2cc(OC)c(OC)c(OC)c2)c2ccccc2n1` (centres undefined) the MST (Plasmodium berghei [1]) was 0.5 days, the MST (Plasmodium berghei [2]) was 0.3 days and the MST (Plasmodium berghei [3]; 640 mg/kg) was 3.5 days and 5 days. For the same compound, the MST (Plasmodium berghei [4]) was -0.3 days and the MST (Plasmodium berghei [5]; 160 mg/kg) was 0.3 days and 0.6 days.

`CCN1CCCC(Nc2nc(Nc3ccc(C(F)(F)F)cc3)c3ccccc3n2)C1` (centres undefined) was tested, and the MST (Plasmodium berghei [1]) was 0.9 days, the MST (Plasmodium berghei [3]; 640 mg/kg) was 3.4 days and 3.1 days and the MST (Plasmodium berghei [4]) was -0.1 days. The MST (Plasmodium berghei [5]; 160 mg/kg) was 0.2 days and 0.3 days.

With `CCN(CC)C1CCC(Nc2nc(Nc3ccc(SC)cc3)c3ccccc3n2)CC1` (centres undefined) the MST (Plasmodium berghei [1]) was 11.7 days, the MST (Plasmodium berghei [2]; 20 mg/kg) was 0.5 days and 0.7 days and the MST (Plasmodium berghei [4]; 80 mg/kg) was 1.1 days and 1.3 days. The MST (Plasmodium berghei [6]) was 0.7 days and the MST (Plasmodium berghei [5]) was 5.7 days.

`CN(C)C1CCC(Nc2nc(Nc3ccc(C(F)(F)F)cc3)c3ccccc3n2)CC1` (centres undefined) showed an MST (Plasmodium berghei [3]) of 0.7 days, an MST (Plasmodium berghei [6]) of 1.1 days and an MST (Plasmodium berghei [5]) of 0.7 days.

In the case of `CCN1CCCC(Nc2nc(Nc3ccc(Cl)c(Cl)c3)c3ccccc3n2)C1` (centres undefined), the MST (Plasmodium berghei [1]) is reported as 2.9 days, the MST (Plasmodium berghei [2]) is reported as 0.9 days and the MST (Plasmodium berghei [3]; 640 mg/kg) is reported as 9.5 days and 10.6 days. For the same compound, the MST (Plasmodium berghei [4]) was 0.9 days and the MST (Plasmodium berghei [5]; 160 mg/kg) was 0.9 days and 2.2 days.

Work on `CCN1CCCC(Nc2nc(Nc3ccc(Cl)c(Cl)c3)nc3ccc([N+](=O)[O-])cc23)C1` (centres undefined) yielded an SD90 (Plasmodium berghei [7]) of 34 mg/kg/day.

With `CCN1CCCC(Nc2nc(Nc3ccc(Cl)c(Cl)c3)nc3c(Cl)cc(Cl)cc23)C1` (centres undefined) the MST (Plasmodium berghei [2]) was 0.3 days, the MST (Plasmodium berghei [6]) was 0.3 days and the MST (Plasmodium berghei [5]) was 0.5 days.

Work on `FC(F)(F)c1ccc(Nc2nc(NCCCN3CCCCC3)nc3ccccc23)cc1` yielded an MST (Plasmodium berghei [3]) of 2.4 days, an MST (Plasmodium berghei [6]) of -0.2 days and an MST (Plasmodium berghei [5]) of -0.2 days.

`CCN(CC)CCNc1nc(Nc2ccc(C(F)(F)F)cc2)c2ccccc2n1` was tested, and the MST (Plasmodium berghei [1]) was 2.8 days, the MST (Plasmodium berghei [2]) was 0.2 days and the MST (Plasmodium berghei [3]; 640 mg/kg) was 5.3 days and 5.5 days. For the same compound, the MST (Plasmodium berghei [4]) was -0.2 days.

In the case of `CCN(CC)CCCC(C)Nc1nc(Nc2ccc(Cl)c(Cl)c2)c2ccccc2n1` (centres undefined), the MST (Plasmodium berghei [1]) is reported as 1.3 days, the MST (Plasmodium berghei [2]) is reported as 0.1 days and the MST (Plasmodium berghei [3]; 640 mg/kg) is reported as 4.7 days and 5.8 days. For the same compound, the MST (Plasmodium berghei [4]) was 0.3 days and the MST (Plasmodium berghei [6]; 40 mg/kg) was 0.3 days and 0.4 days.

`CCN(CC)CCCC(C)Nc1nc(Nc2ccc(C(F)(F)F)cc2)c2ccccc2n1` (centres undefined) gave an MST (Plasmodium berghei [3]) of 1.6 days, an MST (Plasmodium berghei [6]) of -0.6 days and an MST (Plasmodium berghei [5]) of 0 days.
